Values of other authors, collected in US20060110441A1, “Lyophilized liposome formulations and method” (priority 2004, published 2006).
≈ marks a conversion by molar mass, not a printed value.

conditions: not given

water solubility (in words)	Molecule	aqueous solubility
–	COc1cc([C@@H]2c3cc4c(cc3[C@@H](O[C@@H]3O[C@@H]5CO[C@@H](C)O[C@H]5[C@H](O)[C@H]3O)[C@H]3COC(=O)[C@H]23)OCO4)cc(OC)c1O [etopside, reference compound]	30 µg/mL (≈ 51 µM)
very low water solubility	Nc1nc(Nc2ccc(S(N)(=O)=O)cc2)nn1C(=O)c1c(F)cccc1F [1-(2′,6′-difluorobenzoyl)-5-amino-3-(4′-aminosulfonylanilino)-1,2,4-triazole]	–

conditions: not given; remark: another data set of the same source

Molecule	LogP
O=c1[nH]cc(F)c(=O)[nH]1 [fluorouracil]	−0.8
C[C@H]1C[C@H]2[C@@H]3CCC4=CC(=O)C=C[C@]4(C)[C@@]3(F)[C@@H](O)C[C@]2(C)[C@@]1(O)C(=O)CO [betamethasone]	1.9
CC(=O)O[C@H]1C(=O)[C@@]2(C)[C@H]([C@H](OC(=O)c3ccccc3)[C@]3(O)C[C@H](OC(=O)[C@H](O)[C@@H](NC(=O)c4ccccc4)c4ccccc4)C(C)=C1C3(C)C)[C@]1(OC(C)=O)CO[C@@H]1C[C@@H]2O [paclitaxel]	7.4
CCC/C=C/C=C/C(=O)O[C@H]1/C(=C/C(=O)OC)C[C@H]2C[C@H]([C@@H](C)O)OC(=O)C[C@H](O)C[C@@H]3C[C@H](OC(C)=O)C(C)(C)[C@](O)(C[C@@H]4C/C(=C/C(=O)OC)C[C@H](/C=C/C(C)(C)[C@]1(O)O2)O4)O3 [bryostatin-1]	5.4

The remaining lines, values ahead:

LogP	Molecule
6.6	CC(=O)O[C@@]12CO[C@@H]1C[C@H](O)[C@@]1(C)C(=O)[C@H](O)C3=C(C)[C@@H](OC(=O)[C@H](O)[C@@H](NC(=O)OC(C)(C)C)c4ccccc4)C[C@@](O)([C@@H](OC(=O)c4ccccc4)[C@H]21)C3(C)C [docetaxel]
1.8	C[C@]12C[C@H](O)[C@H]3[C@@H](CCC4=CC(=O)CC[C@@]43C)[C@@H]1CC[C@@H]2C(=O)CO [corticosterone]
6.1	CN(C)CC/C=C1/c2ccccc2Sc2ccc(Cl)cc21 [chlorprothixene]
around zero	Nc1nc(Nc2ccc(S(N)(=O)=O)cc2)nn1C(=O)c1c(F)cccc1F [1-(2′,6′-difluorobenzoyl)-5-amino-3-(4′-aminosulfonylanilino)-1,2,4-triazole]

conditions: hydrated lipid

Molecule	Tm, phase transition temperature
CCCCCCCCCCCCCCCCCC(=O)OC[C@H](COP(=O)(O)OC[C@H](N)C(=O)O)OC(=O)CCCCCCCCCCCCCCCCC [distereoyl PS]	68 °C
CCCCCCCC/C=C\CCCCCCCC(=O)OC[C@H](COP(=O)(O)OCC(O)CO)OC(=O)CCCCCCC/C=C\CCCCCCCC (some centres unmarked) [DOPG, dioleoyl phosphatidylglycerol]	−18 °C
CCCCCCCC/C=C\CCCCCCCC(=O)O[C@H](COC(=O)CCCCCCCCCCCCCCCCC)COP(=O)([O-])OCC[N+](C)(C)C [stearyol oleoyl PC, stearyoyl oleoyl phosphatidylcholine]	8 to 13 °C
CCCCCCCC/C=C\CCCCCCCC(=O)OC[C@H](COP(=O)(O)OCCN)OC(=O)CCCCCCC/C=C\CCCCCCCC [DOPE, dioleoyl phosphoethanolamine]	−16 °C
CCCCCCCC/C=C\CCCCCCCC(=O)OC[C@H](COP(=O)(O)OC[C@H](N)C(=O)O)OC(=O)CCCCCCC/C=C\CCCCCCCC [dioleoyl PS]	−11 °C
CCCCCCCCCCCCCCCCCC(=O)OC[C@H](COP(=O)([O-])OCC[N+](C)(C)C)OC(=O)CCCCCCCCCCCCCCCCC [DSPC, distearoyl phosphatidylcholine]	55 °C
CCCCCCCCCCCCCCCCCC(=O)OC[C@H](COP(=O)(O)OCC(O)CO)OC(=O)CCCCCCCCCCCCCCCCC (some centres unmarked) [distereoyl PG]	55 °C
CCCCCCCC/C=C\CCCCCCCC(=O)OC[C@H](COP(=O)([O-])OCC[N+](C)(C)C)OC(=O)CCCCCCCCCCCCCCCCC [oleoyl stearyol PC, oleoyl stearoyl phosphatidylcholine]	5 to 13 °C
CCCCCCCCCCCCCCCCCC(=O)OC[C@H](COP(=O)(O)O)OC(=O)CCCCCCCCCCCCCCCCC [distereoyl PA]	75 °C
palmitoyl docosahexaenoyl PC	−27 °C
CCCCCCCC/C=C\CCCCCCCC(=O)O[C@H](COC(=O)CCCCCCCCCCCCCCC)COP(=O)([O-])OCC[N+](C)(C)C [POPC, palmitoyloleoyl phosphatidylcholine]	−2 °C
CCCCCCCCCCCCCCCCCC(=O)OC[C@H](COP(=O)(O)OCCN)OC(=O)CCCCCCCCCCCCCCCCC [disteroyl phosphoethanolamine]	74 °C
CCCCCCCC/C=C\CCCCCCCC(=O)OC[C@H](COP(=O)([O-])OCC[N+](C)(C)C)OC(=O)CCCCCCCCCCCCCCC [oleoyl palmitoyl PC, oleolyl palmitoyl phosphatidylcholine]	−9 °C
CCCCC/C=C\C/C=C\CCCCCCCC(=O)OC[C@H](COP(=O)(O)OCCN)OC(=O)CCCCCCC/C=C\C/C=C\CCCCC [dilinoleoyl phosphoethanolamine]	−40 °C
CCCCCCCC/C=C\CCCCCCCC(=O)OC[C@H](COP(=O)(O)O)OC(=O)CCCCCCC/C=C\CCCCCCCC [dioleoyl PA]	−8 °C

same assay, conditions: hydrated lipid; listed as palmitoyl oleoyl PC

Tm, phase transition temperature	Molecule
−5 to 3 °C	CCCCCCCC/C=C\CCCCCCCC(=O)O[C@H](COC(=O)CCCCCCCCCCCCCCC)COP(=O)([O-])OCC[N+](C)(C)C [POPC, palmitoyloleoyl phosphatidylcholine]
